Experimental data as given in US20230255934A1, “NURR1 RECEPTOR MODULATORS AND USES THEREOF” (The Regents of the University of California, priority 2020, published 2023).
Entries after “also recorded” stand apart in the source; their conditions may differ. Read-outs that look alike come from different tables or passages of the source.

Experiments:
Nurr1 LBD (wildtype) = biological target: T1, Nurr1 LBD (wildtype) (Homo sapiens, UniProt P43354); assay: Microscale thermophoresis (MST) binding to wildtype Nurr1 LBD; conditions: for Binding to the Nurr1 LBD (in words): MST; for Kd: read-out: KD; for Amplitude: Table 1, MST amplitude, WT; for Response Amplitude: Table 2, MST, Wildtype
T1 construct: made in house
Protocol: (§1) Concentration-dependent association of the indoles with the Nurr1 LBD was carried out using microscale thermophoresis. Stock solutions (10 mM in DMSO) of each indole were serially diluted (200 μM indole, 0.5× dilutions down to 0.0061 μM) in MST buffer (25 mM HEPES, pH 7.4, 150 mM NaCl, and 0.1% Pluronic F127) containing 2% DMSO. The dilutions were carried out with 4% DMSO in the MST buffer for a total of 16 concentrations. Equivalent volumes and concentrations of the fluorescently labeled Nurr1 LBD in MST buffer were added to each ligand dilution in the series to reach a final concentration of 75 nM labeled protein. After incubating for 20 minutes, the samples were loaded into Monolith NT.115 Capillaries (Nanotemper).
(§2) Data were collected using the Monolith NT.115 System (Nanotemper), with settings for all samples at 40% excitation power and 40% MST power. The initial fluorescence was recorded for 3 sec and the thermophoresis fluorescence response was recorded for 20 sec. The data was inspected with Palmist software^5, and data points affected by initial fluorescence quenching or photobleaching were eliminated. The fluorescent response for each sample was normalized to the initial fluorescence using Palmist software to provide the values of thermophoresis (Fn). The resulting data was used to generate a plot of the change in thermophoresis (Fn-Fn0, where Fn=thermophoresis and Fn0=thermophoresis response in unbound range) versus concentration of the ligand. GraphPad Prism v. 8.3.0 software was used to fit the resulting data to a mass action equation for a specific binding with Hill slope, solving for KD: Fn-Fn0═Fmax·[L]^n/(KD^n+[L]^n), where Fmax=maximum amplitude of thermophoresis, [L]=concentration of the ligand at a specific point, KD=dissociation constant, nH=Hill Coefficient.
To investigate the potential impact of compound nano-aggregation on binding affinity, we used dynamic light scattering to inspect the aggregation of 5-chlorindole in solution and repeated the MST binding experiments in the presence of increasing concentrations of the surfactant Pluoronic F127 (FIGS. 12A-12D). […] As well, increasing concentrations of the surfactant Pluronic F127 had small effects (<2-fold) on the affinity of 5-chloroindole for the Nurr1 LBD (FIGS. 12A-12D).

[1] = biological target: T2, Nurr1 LBD Arg563Ala + His516Ala (Homo sapiens, UniProt P43354, H516A/R563A); assay: MST binding to Arg563Ala + His516Ala double mutant Nurr1 LBD; conditions: for Amplitude: Table 1, MST amplitude, H516A/R563A; for Response Amplitude: Table 2, MST, Arg563Ala + His516Ala
T2 construct: Mutants of LAP2 Nurr1 were prepared by GenScript starting from LAP2 Nurr1 vector; made in house
T2 sequence (P43354 with tags, fused parts or gaps H516A/R563A): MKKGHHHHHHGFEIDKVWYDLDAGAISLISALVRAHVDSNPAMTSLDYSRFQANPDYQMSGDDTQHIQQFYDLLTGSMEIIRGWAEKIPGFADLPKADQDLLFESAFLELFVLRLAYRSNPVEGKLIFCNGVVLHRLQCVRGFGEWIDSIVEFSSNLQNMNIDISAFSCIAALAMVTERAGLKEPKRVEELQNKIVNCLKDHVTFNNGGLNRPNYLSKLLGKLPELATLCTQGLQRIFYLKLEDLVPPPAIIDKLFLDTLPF
Protocol: The plasmid used for the expression of LAP2-tagged Nurr1 LBDs (LAP2 Nurr1) was prepared by GenScript (Piscataway, N.J.) as the product of gene synthesis and subcloning into pET-21a(+) Vector (GenScript) using the Ndel and Xhol sites within the MCS. Mutants of LAP2 Nurr1 were prepared by GenScript starting from LAP2 Nurr1 vector.
as §1, §2

MN9D cells = assay: CytoTox-Glo cytotoxicity assay; type: cell-based; conditions: 24 h treatment, 10 μM unless stated
Protocol: Cytotoxicity assays were carried out using the CytoTox-Glo Cytotoxicity Assay Kit (Promega) according to the manufacturer's instructions. Briefly, MN9D cells were resuspended in DMEM/F-12 with 5% FBS at 2·10^5 cells/ml and added to an equal volume of two-fold concentrated compound in the same media containing 0.2% DMSO (prepared by diluting DMSO stock of the compound in warm DMEM/F-12 with 5% FBS; for DMSO control equivalent volume of DMSO was used instead of the compound stock), and immediately re-plated onto poly-D-lysine pre-treated 96-well white-walled flat clear bottom plate (Corning cat #3903) at a density of 1·10^4 cells/well (100 μL/well), 3 replicas per compound. As a background (BG) control, for each of the compound (or DMSO) equivalent volume of compound mixed with DMEM/F-12+5% FBS was plated. After 24 h treatment at 37° C., in 5% C02 incubator, 50 μL of CytoTox-Glo™ Cytotoxicity Assay Reagent was added to each well, mixed briefly by orbital shaking and incubated for 15 min at ambient temperature. Luminescence signal corresponding to dead cells was measured using Biotek Synergy H4 hybrid microplate reader. After the measurement, 50 μL of Lysis Reagent was added to each well, mixed, incubated for 15 min at ambient temperature, and total luminescence was measured. The percentage of viable cells was then calculated as follows: Percent Viable Cells (%)=100% (Total cell luminescence (test compound)—Dead cell luminescence (test compound))/(Total cell luminescence (DMSO)—Dead cell luminescence (DMSO)).

[2] = Table 1, H516A/R563A relative to WT

T1 sequence (P43354 with tags, fused parts or gaps): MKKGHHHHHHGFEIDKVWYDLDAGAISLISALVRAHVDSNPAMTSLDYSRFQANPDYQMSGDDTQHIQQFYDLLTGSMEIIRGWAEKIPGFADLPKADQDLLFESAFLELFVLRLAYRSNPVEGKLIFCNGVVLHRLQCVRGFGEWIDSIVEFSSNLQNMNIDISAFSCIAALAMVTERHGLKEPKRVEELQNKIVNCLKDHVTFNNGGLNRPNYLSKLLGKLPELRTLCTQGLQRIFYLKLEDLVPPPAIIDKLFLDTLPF

SMILES: Brc1ccc2[nH]ccc2c1 [5-bromoindole]
- Binding to the Nurr1 LBD (in words) (Nurr1 LBD (wildtype)): saturable binding
- Kd (Nurr1 LBD (wildtype); Nurr1 LBD): 5 µM
- Amplitude (Nurr1 LBD (wildtype)): 72 + 8
- Kd (Nurr1 LBD (wildtype); Table 1, Nurr1 variant WT): 10 µM
- Amplitude (% change) (Nurr1 LBD (wildtype); Table 1, WT (reference)): 0
- Response Amplitude (Nurr1 LBD (wildtype)): 50 + 4
- Binding to Arg563Ala + His516Ala mutant Nurr1 LBD (in words) ([1]; MST): completely eliminated
- Amplitude (% change) [1, 2]: ≥−86%
- Amplitude [1]: - (≤10)
- Response Amplitude [1]: ≤10 (****)
- Cytotoxicity / cell viability (MN9D cells): somewhat toxic to cells under certain conditions

SMILES: Clc1ccc2[nH]ccc2c1 [5-chloroindole]
- Hill coefficient nH (Nurr1 LBD (wildtype); 0.1% Pluronic F127): 2
- Hill coefficient nH (Nurr1 LBD (wildtype); 0.2% Pluronic F127): 2
- Kd (Nurr1 LBD (wildtype); 0.2% Pluronic F127): 8.3 ± 0.7 µM
- Hill coefficient nH (Nurr1 LBD (wildtype); 0.5% Pluronic F127): 1
- Kd (Nurr1 LBD (wildtype); 0.5% Pluronic F127): 10.9 ± 0.3 µM
- Hill coefficient nH (Nurr1 LBD (wildtype); 1.0% Pluronic F127): 1
- Kd (Nurr1 LBD (wildtype); 1.0% Pluronic F127): 9.1 ± 0.4 µM
- Binding to the Nurr1 LBD (in words) (Nurr1 LBD (wildtype)): saturable binding; also recorded: comparable to DHI
- Kd (Nurr1 LBD (wildtype); Nurr1 LBD): 15 µM
- Amplitude (Nurr1 LBD (wildtype)): 68 + 4
- Kd (Nurr1 LBD (wildtype); Table 1, Nurr1 variant WT): 25 µM
- Response Amplitude (Nurr1 LBD (wildtype)): 54 + 2
- Amplitude (% change) [1, 2]: −62%
- KD (% change) [1, 2]: −68%
- Amplitude [1]: 26 + 2
- Kd ([1]; Table 1, Nurr1 variant H516A/R563A, read-out: KD): 8 µM
- Kd ([1]; Table 2, Arg563Ala + His516Ala, read-out: Affinity (KD)): 7.3 µM
- Response Amplitude [1]: 23 + 1 (****)
- Cytotoxicity / cell viability (MN9D cells): no significant effect on cell viability; also recorded: not cytotoxic; also recorded: non-cytotoxic
